Here are results for two molecules from US6720142B1, “Method of determining evolutionary potential of mutant resistance genes and use thereof to screen for drug efficacy” (priority 1999, dated 2004).

The test system of test [1] is host cells carrying pAmpC0-305 (AmpC T121 to S). The experiment in a line: MIC test, single-mutation plasmid pAmpC0-305. Format: cell-based, E. coli. The note with it: pAmpC0-305; A663 to G; T121 to S. The protocol: (§1) Basically, a MIC determination is carried out by preparing serial dilutions of drugs in a micro-well plate and measuring host cell growth within those wells. The MIC for a particular set of host cells containing a mutant resistance gene is determined by examining the wells to locate the lowest concentration of drug which inhibited cell growth. This is capable of discriminating generally between those host cells containing mutant resistance genes conferring different degrees of resistance against the particular drug.
(§2) Serial dilutions were prepared by first determining the volume of drug solution to be added to the first well in each row to achieve the desired concentration of drug in a total volume of 1 ml. The MIC was determined for the following drugs: ampicillin, pipericillin, temocillin, cephalothin, cefuroxime, cefotaxime, ceftazidime, cefepime, imipenem, meropenem, and aztreonam. To the first well in each row 1 ml of the diluted cell suspension was added, and to all remaining wells per row 0.5 ml of the diluted cell suspension was added. For each row, the predetermined volume of a drug solution was added to the first well per row, mixed well, and then 0.5 ml of the mixed solution was transferred to the next well, and so on until the serial dilutions were completed. From the last well in each row, 0.5 ml was removed so that all well contained 0.5 ml of the drug-containing culture. Plates were sealed with BreatheEasy film (Diversified Biotech, Boston, Mass.) and maintained overnight at 37° C. with shaking. […] The MICs, in μg/ml, for each of the above-identified drugs was as follows: ampicillin, >1024; pipericillin, >1024; temocillin, 32: cephalothin, 1024; cefuroxime, 512; cefotaxime, 8; ceftazidime, 64; cefepime, 1; imipenem, 0.25; meropenem, 0.03125; and aztreonam, 16.
(§3) To determine the phenotypic effects of each of the amino acid substitutions, the A907C, A587G, A663G, T869G, and A884G mutations are being individually introduced into pAmpC0 by site-directed mutagenesis. It is expected that the A907C mutation will result in MICs that are identical to pAmpC13A. The A587G, A663G, and As84G mutations will also be introduced individually into AmpC13 to determine whether the combination of any of those mutations with A907C will result in increased resistance levels.
(§4) MICs of three of the plasmids containing the wildtype AmpC gene into which the above mutations have been introduced have been determined, as shown in Table 2 below.

The test system of test [2] is E. coli JM109 carrying pAmpC0 (wildtype E. coli K12 ampC gene). As to the kind of experiment: MIC test, plasmid pAmpC0 (wildtype ampC gene). Format: cell-based. The note with it: for MIC: pAmpC0 (wildtype ampC); for resistance conferred by plasmid pAmpC0: wildtype ampC gene, Table 1 boxed cells. The protocol:
as §1
All experiments utilizing ampicillin resistance will be directed toward the cloned and regulated ampC gene (or mutant ampC gene) in such a way that the regulation, i.e., the amount of enzyme produced per cell, will be held constant throughout the experiments and all of the “improvement” in resistance will come from improvement in β-lactamase activity.
as §2, with “16. […]” for “16.”

Test [3] concerns E. coli carrying pAmpC41A (mutant ampC). As to the kind of experiment: MIC test, mutant plasmid pAmpC41A. Type of test: cell-based. As to the method:
Serial dilutions were prepared by first determining the volume of drug solution to be added to the first well in each row to achieve the desired concentration of drug in a total volume of 1 ml. The MIC was determined for the following drugs: ampicillin, pipericillin, temocillin, cephalothin, cefuroxime, cefotaxime, ceftazidime, cefepime, imipenem, meropenem, and aztreonam. To the first well in each row 1 ml of the diluted cell suspension was added, and to all remaining wells per row 0.5 ml of the diluted cell suspension was added. For each row, the predetermined volume of a drug solution was added to the first well per row, mixed well, and then 0.5 ml of the mixed solution was transferred to the next well, and so on until the serial dilutions were completed. From the last well in each row, 0.5 ml was removed so that all well contained 0.5 ml of the drug-containing culture. Plates were sealed with BreatheEasy film (Diversified Biotech, Boston, Mass.) and maintained overnight at 37° C. with shaking. […]
Plasmids were prepared from those isolates and were transformed into E. coli strain JM109. MICs conferred by each of those plasmids was determined as in Example 5. […]

The subject of test [4] is host cells carrying PAmpC0-307 (AmpC L290 to R). The experiment in a line: MIC test, single-mutation plasmid PAmpC0-307. Type of test: cell-based, E. coli. The note with it: PAmpC0-307; T869 to G; L290 to R. As to the method: as §1, §2, §3, §4
Test [5] has as its system E. coli carrying pAmpC13A (mutant ampC, S303R). The experiment in a line: MIC test, mutant plasmid pAmpC13A. Format: cell-based. As to the method: (§5) Serial dilutions were prepared by first determining the volume of drug solution to be added to the first well in each row to achieve the desired concentration of drug in a total volume of 1 ml. The MIC was determined for the following drugs: ampicillin, pipericillin, temocillin, cephalothin, cefuroxime, cefotaxime, ceftazidime, cefepime, imipenem, meropenem, and aztreonam. To the first well in each row 1 ml of the diluted cell suspension was added, and to all remaining wells per row 0.5 ml of the diluted cell suspension was added. For each row, the predetermined volume of a drug solution was added to the first well per row, mixed well, and then 0.5 ml of the mixed solution was transferred to the next well, and so on until the serial dilutions were completed. From the last well in each row, 0.5 ml was removed so that all well contained 0.5 ml of the drug-containing culture. Plates were sealed with BreatheEasy film (Diversified Biotech, Boston, Mass.) and maintained overnight at 37° C. with shaking.
(§6) Plasmids were prepared from those isolates and were transformed into E. coli strain JM109.

In test [6] the test system is E. coli JM109 carrying the plasmid vector pACSE without an ampC gene. The experiment in a line: MIC test, plasmid vector pACSE without an ampC gene. Format: cell-based. The note with it: pACSE (vector, no ampC). As to the method: as §1, §2
Plasmids were prepared from those isolates and were transformed into E. coli strain JM109. MICs conferred by each of those plasmids was determined as in Example 5.
as §4

The subject of test [7] is E. coli carrying pAmpC21B (mutant ampC). As to the kind of experiment: MIC test, mutant plasmid pAmpC21B. Type of test: cell-based. The protocol:
as §5, §6

The test system of test [8] is host cells carrying PAmpC0-308 (AmpC N295 to S). The experiment in a line: MIC test, single-mutation plasmid PAmpC0-308. Type of test: cell-based, E. coli. The note with it: A644 to G.
Test [9] concerns E. coli DH5α-E containing multiply mutated ampC. As to the kind of experiment: MIC of population of E. coli host cells containing multiply mutated (DNA-shuffled) ampC. Format: cell-based. The note with it: Escherichia coli; lowest drug concentration that completely inhibited growth; overnight at 37° C., MH-I broth, 48-well plates, shuffled ampC library in DH5α-E. As to the method: E. coli host cells prepared according to Example 4 were diluted into 100 ml MuellerHinton-IPTG (MH-T) broth. Duplicate samples of 10^0, 10^1, and 10^2 dilutions were spread onto L(tet) plates to estimate total transformants, and duplicate 10^0 and 10^1 samples were spread onto MH-I(ampicillin) plates to estimate the number of Amp^R transformants. 10 mg ampicillin was added to each culture using 1 ml of a 10 mg/ml ampicillin solution. The culture was allowed to stand overnight at 37° C. without shaking.
Next, the minimum inhibitory concentration of a number of drug was determined. An estimate of viable cells was calculated by assuming that an A600 of 1.0 is equivalent to 1.9×10^8 per ml for DH5α-E cells. A sample of the overnight culture was diluted into 70 ml of MH-I so that the number of cells per ml 10^5 per ml. The resulting suspension was used to determine MIC in 48-well microtiter plates.
as §2

≈ marks a conversion by molar mass, not a printed value.

A word on the MIC: it is the lowest concentration found to suppress growth. As for `CO/N=C(\C(=O)N[C@@H]1C(=O)N2C(C(=O)[O-])=C(C[N+]3(C)CCCC3)CS[C@H]12)c1csc(N)n1` [Cefepime, cefepime], the minimum inhibitory concentration (MIC) in [1] amounted to 0.0625 µg/mL; in test [2], 0.0625 µg/mL (≈ 0.13 µM); in test [4], 0.0625 µg/mL; in test [6] it was 0.0312 µg/mL (≈ 0.065 µM); in test [8] it was 0.0625 µg/mL (≈ 0.13 µM); in [9], 1 µg/mL. In addition, the “resistance conferred by plasmid pAmpC0” value in test [2] is “not”. Further, the improvement in resistance in [3] (pAmpC41A, first line) is listed as 128 fold. For the same molecule, the “improved resistance conferred by pAmpC13A” value in [5] is “improved resistance”. Moreover, the increase in resistance in test [7] (pAmpC21B, second line) was 2 fold.
`CCN1CCN(C(=O)N[C@@H](C(=O)N[C@@H]2C(=O)N3[C@@H]2SC(C)(C)[C@@H]3C(=O)O)c2ccccc2)C(=O)C1=O` [Pipericillin, pipericillin]: the minimal inhibitory concentration (MIC) in test [1] was 16 µg/mL; in test [2] it was 16 µg/mL (≈ 30.9 µM); in [4], 16 µg/mL; in [6], 4 µg/mL (≈ 7.73 µM); in test [8], 4 µg/mL (≈ 7.73 µM). Further, the “resistance conferred by plasmid pAmpC0” value in test [2] is recorded as “not”. For the same molecule, the “improvement in resistance conferred by pAmpC41A” value in test [3] (after subsequent rounds of mutagenesis and selection, relative to pAmpC13A) was “slight improvement in resistance”. Also, in [5], the “clinical resistance conferred by pAmpC13A” value is listed as “clinical resistance”. Further, the “improved resistance conferred by pAmpC13A” value in [5] is “improved resistance”. The “clinical resistance conferred by pAmpC21B” value in test [7] (after two cycles of mutagenesis and selection) is “clinical resistance”.
